In patent publication US6495525B1, “VLA-4 inhibitor: oMePUPA-V” (Biogen, Inc., priority 1998, dated 2002):
“Also recorded” adds a separate entry of the source.

Key:
[1] = system: Ascaris suum-sensitive sheep; test: Single dose irritancy, airways resistance after aerosol in sheep; type: in vivo; details: single aerosol doses 0.01-3 mg
Experimental: FIG. 2: Sheep, naturally sensitive to Ascaris suum, were challenged with an aerosol administration of oMePUPA-V at the doses indicated or an aerosol of Ascaris suum. Changes in airways resistance were measured following aerosol challenge and peak specific lung resistance (cm H2O/sec) after challenge was compared to baseline values. *=p<0.05 compared to PBS control, one-way analysis of variance, followed by Dunnett's test for multiple comparison to a control group. Indicates a statistically significant increase in peak specific lung resistance compared to PBS control group.

VLA-4 = molecular target: T1, VLA-4 (Mus musculus, UniProt P09055+Q00651); test: VCAM-Ig Competitive Binding Assay on mouse splenocytes; details: Mn+2
T1 construct: from tissue; host or cells: mouse spleen cells

α4β7 = molecular target: T2, α4β7 (Homo sapiens, UniProt P13612+P26010); test: JY cell adhesion to CS1/BSA conjugate; type: cell-based; details: Mn+2
T2 construct: endogenous in cells; host or cells: JY cells
T2 sequence (P13612 34-1032): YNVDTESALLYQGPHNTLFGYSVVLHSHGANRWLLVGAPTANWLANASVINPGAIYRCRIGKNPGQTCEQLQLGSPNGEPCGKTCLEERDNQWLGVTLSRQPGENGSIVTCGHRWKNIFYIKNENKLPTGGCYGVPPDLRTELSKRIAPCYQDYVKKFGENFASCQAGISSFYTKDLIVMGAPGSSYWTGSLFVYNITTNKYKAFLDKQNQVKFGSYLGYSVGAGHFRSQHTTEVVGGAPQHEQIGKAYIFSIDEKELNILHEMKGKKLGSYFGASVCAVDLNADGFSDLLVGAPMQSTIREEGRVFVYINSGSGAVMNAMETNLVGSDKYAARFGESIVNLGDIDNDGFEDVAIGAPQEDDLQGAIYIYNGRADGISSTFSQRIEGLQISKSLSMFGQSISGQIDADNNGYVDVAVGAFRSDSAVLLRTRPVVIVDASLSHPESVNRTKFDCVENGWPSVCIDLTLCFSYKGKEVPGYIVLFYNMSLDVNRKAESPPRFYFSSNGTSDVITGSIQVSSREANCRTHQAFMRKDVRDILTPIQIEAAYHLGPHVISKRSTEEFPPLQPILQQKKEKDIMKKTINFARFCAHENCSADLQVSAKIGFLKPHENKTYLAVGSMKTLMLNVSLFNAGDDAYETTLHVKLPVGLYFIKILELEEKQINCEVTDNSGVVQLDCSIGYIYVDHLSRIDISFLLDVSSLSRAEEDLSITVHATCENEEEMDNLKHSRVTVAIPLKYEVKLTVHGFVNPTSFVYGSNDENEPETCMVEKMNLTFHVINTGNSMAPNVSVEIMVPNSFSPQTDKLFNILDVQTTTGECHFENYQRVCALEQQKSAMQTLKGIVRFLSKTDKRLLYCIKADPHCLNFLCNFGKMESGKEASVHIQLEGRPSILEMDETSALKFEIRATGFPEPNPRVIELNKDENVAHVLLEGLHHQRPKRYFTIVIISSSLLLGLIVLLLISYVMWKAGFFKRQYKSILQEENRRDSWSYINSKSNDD
T2 sequence (P26010 20-798): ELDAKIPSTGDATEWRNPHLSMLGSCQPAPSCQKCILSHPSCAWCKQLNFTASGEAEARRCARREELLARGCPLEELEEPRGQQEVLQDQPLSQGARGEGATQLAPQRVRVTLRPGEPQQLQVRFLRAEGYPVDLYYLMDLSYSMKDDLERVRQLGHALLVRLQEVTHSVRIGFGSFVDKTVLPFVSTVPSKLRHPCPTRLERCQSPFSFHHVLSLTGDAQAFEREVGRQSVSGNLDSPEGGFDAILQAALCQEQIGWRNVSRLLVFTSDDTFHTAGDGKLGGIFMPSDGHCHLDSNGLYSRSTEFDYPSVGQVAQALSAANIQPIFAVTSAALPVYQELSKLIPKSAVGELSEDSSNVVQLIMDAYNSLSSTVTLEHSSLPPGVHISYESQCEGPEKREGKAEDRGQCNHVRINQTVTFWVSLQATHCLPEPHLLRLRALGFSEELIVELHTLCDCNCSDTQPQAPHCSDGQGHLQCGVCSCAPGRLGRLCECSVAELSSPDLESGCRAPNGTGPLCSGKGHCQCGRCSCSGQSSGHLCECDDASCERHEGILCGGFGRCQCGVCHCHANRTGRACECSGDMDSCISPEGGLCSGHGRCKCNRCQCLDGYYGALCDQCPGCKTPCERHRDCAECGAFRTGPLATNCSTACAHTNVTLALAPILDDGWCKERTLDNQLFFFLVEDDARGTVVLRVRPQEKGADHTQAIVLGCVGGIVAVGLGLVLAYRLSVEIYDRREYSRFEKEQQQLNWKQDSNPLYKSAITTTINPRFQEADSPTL
Experimental: Binding to α4β7 was assessed on JY cells in the presence of Mn^+2. In the binding assay, VCAM-Ig and oMePUPA-V compete for binding to α4β7 on JY cells (See section 4.1.1 for assay protocol). In the cell adhesion assay, oMePUPA-V was tested for its ability to block JY (α4β7) cell binding to CS1/BSA conjugate

VLA-5 = molecular target: T3, VLA-5 (Homo sapiens, UniProt P05556+P08648); test: Adhesion of K562 cells to Fn-120 (VLA-5 / α5β1-FN adhesion); type: cell-based
T3 construct: endogenous in cells; host or cells: K562 cells
Experimental: Untreated 96 well polystyrene flat bottom plates were coated with 5 μg/ml Fn-120 overnight at 4° C. The plates were washed twice with phosphate buffered saline (PBS) and blocked with 1% Bovine Serum Albumin (BSA) for 1 hour at room temperature. The plates were washed twice with TBS buffer containing 1 mM MnCl2 (assay buffer). K562 cells were labeled with 2 μM of the fluorescent dye, BCECF-AM (see section 4.1.3), and bound to the plate for 30 minutes at room temperature. The plates were inverted and washed three times and adherent cells were quantitated in a Cytofluor fluorescent platereader using an excitation wavelength of 485 nm and an emission wavelength of 530

T3 sequence (P08648 42-894 limits assumed): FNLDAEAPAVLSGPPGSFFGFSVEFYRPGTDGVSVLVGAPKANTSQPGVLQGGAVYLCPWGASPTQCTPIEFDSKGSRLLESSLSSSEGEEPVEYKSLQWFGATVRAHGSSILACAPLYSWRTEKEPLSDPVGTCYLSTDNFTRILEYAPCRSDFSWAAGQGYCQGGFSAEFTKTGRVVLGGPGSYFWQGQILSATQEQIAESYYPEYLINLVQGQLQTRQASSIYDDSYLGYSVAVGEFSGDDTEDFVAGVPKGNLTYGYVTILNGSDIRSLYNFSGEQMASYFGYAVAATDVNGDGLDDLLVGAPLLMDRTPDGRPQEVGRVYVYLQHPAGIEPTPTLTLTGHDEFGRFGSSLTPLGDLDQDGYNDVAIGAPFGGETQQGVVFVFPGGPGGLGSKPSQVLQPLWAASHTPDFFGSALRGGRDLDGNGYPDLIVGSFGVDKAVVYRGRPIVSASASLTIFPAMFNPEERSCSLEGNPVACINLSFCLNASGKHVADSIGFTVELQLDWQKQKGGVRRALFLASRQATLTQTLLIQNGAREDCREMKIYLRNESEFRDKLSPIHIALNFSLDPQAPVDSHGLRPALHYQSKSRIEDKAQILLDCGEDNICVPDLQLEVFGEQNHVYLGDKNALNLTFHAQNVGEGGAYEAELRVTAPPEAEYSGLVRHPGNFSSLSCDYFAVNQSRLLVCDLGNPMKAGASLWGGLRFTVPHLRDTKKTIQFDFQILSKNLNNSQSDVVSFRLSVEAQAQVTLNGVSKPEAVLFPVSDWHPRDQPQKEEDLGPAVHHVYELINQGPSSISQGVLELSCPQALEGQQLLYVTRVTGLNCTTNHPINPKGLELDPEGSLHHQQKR
T3 sequence (P08648 895-1049 partner limits assumed): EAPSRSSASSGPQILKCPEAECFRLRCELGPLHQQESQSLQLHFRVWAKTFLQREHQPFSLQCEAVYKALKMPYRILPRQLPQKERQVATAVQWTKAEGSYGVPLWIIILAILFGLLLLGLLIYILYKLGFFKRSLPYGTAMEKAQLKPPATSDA
T3 sequence (P05556 21-798): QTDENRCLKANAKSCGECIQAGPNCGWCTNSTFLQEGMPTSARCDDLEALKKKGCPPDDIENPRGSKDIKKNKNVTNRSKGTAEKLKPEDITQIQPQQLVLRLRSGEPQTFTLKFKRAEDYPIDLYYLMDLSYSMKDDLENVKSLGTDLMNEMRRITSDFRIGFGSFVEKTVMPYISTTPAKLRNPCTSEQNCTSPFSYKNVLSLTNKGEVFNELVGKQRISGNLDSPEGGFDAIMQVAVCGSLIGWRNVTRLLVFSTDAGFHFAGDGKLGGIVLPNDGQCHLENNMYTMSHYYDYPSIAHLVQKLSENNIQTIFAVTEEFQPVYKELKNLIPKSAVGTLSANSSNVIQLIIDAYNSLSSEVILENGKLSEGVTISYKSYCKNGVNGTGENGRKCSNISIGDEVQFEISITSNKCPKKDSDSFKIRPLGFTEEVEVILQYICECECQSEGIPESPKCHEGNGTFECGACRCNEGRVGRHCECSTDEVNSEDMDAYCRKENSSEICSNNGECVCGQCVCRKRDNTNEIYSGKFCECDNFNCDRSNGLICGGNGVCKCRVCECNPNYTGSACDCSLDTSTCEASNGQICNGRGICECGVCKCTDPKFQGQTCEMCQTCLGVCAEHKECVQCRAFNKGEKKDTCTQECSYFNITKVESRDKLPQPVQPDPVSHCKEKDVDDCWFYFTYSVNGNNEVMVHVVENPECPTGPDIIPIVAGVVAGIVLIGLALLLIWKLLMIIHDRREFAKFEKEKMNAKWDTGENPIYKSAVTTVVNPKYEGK
T1 sequence (Q00651 41-1039): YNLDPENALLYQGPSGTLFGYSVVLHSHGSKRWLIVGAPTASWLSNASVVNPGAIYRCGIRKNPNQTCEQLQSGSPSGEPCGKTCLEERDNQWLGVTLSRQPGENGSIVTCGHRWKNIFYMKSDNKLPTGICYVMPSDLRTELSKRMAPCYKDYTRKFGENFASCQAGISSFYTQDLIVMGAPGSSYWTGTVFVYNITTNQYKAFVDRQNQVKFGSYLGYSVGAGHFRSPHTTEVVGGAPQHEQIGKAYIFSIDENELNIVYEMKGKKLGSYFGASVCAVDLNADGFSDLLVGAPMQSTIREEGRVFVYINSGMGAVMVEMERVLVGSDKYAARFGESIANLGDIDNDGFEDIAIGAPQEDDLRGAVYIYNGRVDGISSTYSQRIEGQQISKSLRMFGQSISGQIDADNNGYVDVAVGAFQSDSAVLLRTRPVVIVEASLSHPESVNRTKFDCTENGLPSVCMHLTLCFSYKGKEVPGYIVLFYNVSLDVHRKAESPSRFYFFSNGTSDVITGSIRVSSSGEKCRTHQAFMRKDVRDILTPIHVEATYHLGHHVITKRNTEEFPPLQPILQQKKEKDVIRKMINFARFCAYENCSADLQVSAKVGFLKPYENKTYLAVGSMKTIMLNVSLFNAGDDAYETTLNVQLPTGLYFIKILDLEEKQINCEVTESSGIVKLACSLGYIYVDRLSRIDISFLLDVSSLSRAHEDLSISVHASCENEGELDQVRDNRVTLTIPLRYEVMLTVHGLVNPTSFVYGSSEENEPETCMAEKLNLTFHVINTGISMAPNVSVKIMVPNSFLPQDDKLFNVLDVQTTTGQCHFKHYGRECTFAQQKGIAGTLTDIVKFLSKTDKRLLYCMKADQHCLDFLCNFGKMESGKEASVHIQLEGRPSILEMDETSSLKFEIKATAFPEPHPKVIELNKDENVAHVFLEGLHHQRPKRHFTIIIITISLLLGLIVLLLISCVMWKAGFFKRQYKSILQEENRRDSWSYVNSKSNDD
T1 sequence (P09055 21-798): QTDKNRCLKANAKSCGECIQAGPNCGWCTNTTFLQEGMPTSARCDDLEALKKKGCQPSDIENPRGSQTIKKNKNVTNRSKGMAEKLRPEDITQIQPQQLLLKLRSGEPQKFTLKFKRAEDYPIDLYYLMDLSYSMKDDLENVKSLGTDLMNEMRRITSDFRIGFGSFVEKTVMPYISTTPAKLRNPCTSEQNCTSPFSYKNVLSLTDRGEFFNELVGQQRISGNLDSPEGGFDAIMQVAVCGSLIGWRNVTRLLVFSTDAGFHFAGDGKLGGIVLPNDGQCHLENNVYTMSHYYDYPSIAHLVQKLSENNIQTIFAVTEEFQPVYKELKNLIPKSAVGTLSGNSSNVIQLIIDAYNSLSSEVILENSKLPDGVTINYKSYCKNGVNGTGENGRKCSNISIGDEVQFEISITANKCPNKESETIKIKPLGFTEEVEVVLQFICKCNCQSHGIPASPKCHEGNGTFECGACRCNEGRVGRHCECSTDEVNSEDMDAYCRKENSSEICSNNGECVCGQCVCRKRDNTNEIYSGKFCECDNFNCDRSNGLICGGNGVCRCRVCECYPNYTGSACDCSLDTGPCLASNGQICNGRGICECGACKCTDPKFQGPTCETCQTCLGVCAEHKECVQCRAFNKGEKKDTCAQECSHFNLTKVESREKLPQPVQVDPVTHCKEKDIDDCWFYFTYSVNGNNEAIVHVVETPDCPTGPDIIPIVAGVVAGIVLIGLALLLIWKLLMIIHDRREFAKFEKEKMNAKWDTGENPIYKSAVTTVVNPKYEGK

For `Cc1ccccc1NC(=O)Nc1ccc(CC(=O)N2CCC[C@H]2C(=O)N[C@H](C)CC(=O)O)cc1` [oMePUPA-V], the “irritant effect, change in airways resistance compared to baseline” value [1] was “lack of change in airways resistance compared to baseline resistance”, the IC50 (VLA-4) was 4 ± 2 nM and the “inhibition, JY (α4β7) CS1/BSA adhesion” value (α4β7; @ 100 μM) was “no inhibition @”. For the same molecule, the “blocking of α4β7 binding to CS1/BSA (in words)” value (α4β7; JY cells) was “does not block”, the “measurable activity against VLA-5” value (VLA-5) was greater than 100 µM and the “inhibition, K562 (VLA-5) Fn-120 adhesion” value (VLA-5; @ 100 μM, Mn+2, 100 µM) was “no inhibition; also recorded: no inhibition @”. For the same molecule, the IC50 (VLA-5; read-out: IC50 against α5β1-FN adhesion) was greater than 100000 nM.
